Experiments:
[1] = target: Human immunodeficiency virus type 1 reverse transcriptase (Human immunodeficiency virus 1, UniProt Q72547); assay: Inhibitory activity against HIV-1 wild-type reverse transcriptase.
[2] = target: Human immunodeficiency virus type 1 reverse transcriptase (Human immunodeficiency virus 1, UniProt Q72547, Y181C); assay: Inhibitory activity against HIV-1 Y181C reverse transcriptase.
[3] = target: Human immunodeficiency virus type 1 reverse transcriptase (Human immunodeficiency virus 1, UniProt Q72547, Y188L); assay: Inhibitory activity against HIV-1 Y188L reverse transcriptase.
C8166 = assay: Inhibitory activity against HIV-1 IIIB replication in C8166 cells.; format: functional, cell-based; settings: Homo sapiens
[4] = target: Human immunodeficiency virus type 1 reverse transcriptase (Human immunodeficiency virus 1, UniProt Q72547, V106A); assay: Inhibitory activity against HIV-1 Mutant Reverse transcriptase V106A
[5] = target: Human immunodeficiency virus type 1 reverse transcriptase (Human immunodeficiency virus 1, UniProt Q72547, P236L); assay: Inhibitory activity against HIV-1 Mutant Reverse transcriptase P236L
[6] = target: Human immunodeficiency virus type 1 reverse transcriptase (Human immunodeficiency virus 1, UniProt Q72547, G190A); assay: Inhibitory activity against HIV-1 Mutant Reverse transcriptase G190A
[7] = target: Human immunodeficiency virus type 1 reverse transcriptase (Human immunodeficiency virus 1, UniProt Q72547, K103N); assay: Inhibitory activity against HIV-1 Mutant Reverse transcriptase K103N

SMILES	IC50 [1] [µM]	IC50 [2] [µM]	IC50 [3] [µM]	further results
CCN1c2ncc(CCc3cncnc3)cc2C(=O)N(C)c2cccnc21	0.54	> 1	> 1	
CCN1c2ncc(CCc3cccc(F)c3)cc2C(=O)N(C)c2cccnc21	0.12	0.37	> 1	
CCN1c2ncc(CCc3ccc(NS(C)(=O)=O)cc3)cc2C(=O)N(C)c2ccc(Cl)nc21	0.33	0.56	> 1	
CCN1c2ncc(CCc3ccccc3)cc2C(=O)N(C)c2ccc(Cl)nc21				IC50 (C8166): 0.012 µM
CCN1c2ncc(CCc3ccncc3)cc2C(=O)N(C)c2ccc(I)nc21	0.09	0.18	0.43	
CCN1c2ncc(CCc3cccc(C)c3)cc2C(=O)N(C)c2cccnc21	0.11	0.28	> 1	
CCN1c2ncc(CCc3ccncc3)cc2C(=O)N(C)c2ccc(C#N)nc21	0.46	0.29	> 1	
CCN1c2ncc(CCc3cccc(N)c3)cc2C(=O)N(C)c2cccnc21	0.04	0.07	> 1	
CCN1c2ncc(CCc3ccccc3N)cc2C(=O)N(C)c2cccnc21	0.08	1.7	> 1	
CCN1c2ncc(N)cc2C(=O)N(C)c2cccnc21	0.1			
CCN1c2ncc(/C=C/c3ccncc3)cc2C(=O)N(C)c2cccnc21	3	> 1		
CCN1c2ncc(Cc3ccccc3)cc2C(=O)N(C)c2cccnc21	0.12	1.2		
CCN1c2ncc(CCc3ccnc(C)c3)cc2C(=O)N(C)c2cccnc21	0.03	0.09	> 1	
CCN1c2ncc(CCc3ccnc(CO)c3)cc2C(=O)N(C)c2ccc(Cl)nc21	0.16	0.28	> 1	
CCN1c2ncc(CCc3ccc(C)cc3)cc2C(=O)N(C)c2cccnc21	0.1	0.25	> 1	
CCN1c2ncc(CCc3cccc(NC(N)=O)c3)cc2C(=O)N(C)c2ccc(Cl)nc21	0.06	0.08	0.23	IC50 (C8166): 0.039 µM
CCN1c2ncc(CCc3ccc4ccccc4c3)cc2C(=O)N(C)c2ccc(Cl)nc21	1.02	2.88	> 1	
CCN1c2ncc(CCc3ccncc3)cc2C(=O)N(C)c2cccnc21	0.03	0.11	> 1	IC50 (C8166): 0.025 µM
CCN1c2ncc(CCc3ccccc3C)cc2C(=O)N(C)c2cccnc21	0.2	1.6	> 1	
CCN1c2ncc(CCc3ccnc(C(=O)O)c3)cc2C(=O)N(C)c2ccc(Cl)nc21	1.5	3.8	> 1	
CCN1c2ncc(-c3cccc(OC)c3)cc2C(=O)N(C)c2cccnc21	> 1	> 1		
CCN1c2ncc(CCc3ccc(C)cc3)cc2C(=O)N(C)c2ccc(Cl)nc21	0.23	1.18	> 1	
CCN1c2ncc(CCc3ccnc(C)c3)cc2C(=O)N(C)c2ccc(Cl)nc21	0.06	0.14	> 1	
CCN1c2ncc(CCc3ccncc3)cc2C(=O)N(C)c2ccc(F)nc21	0.05	0.08	0.25	IC50 [4]: 0.25 µM; IC50 [5]: 0.05 µM; IC50 [6]: 0.06 µM; IC50 [7]: 0.02 µM
CCN1c2ncc(CCc3ccnc(C(N)=O)c3)cc2C(=O)N(C)c2ccc(Cl)nc21	0.05	0.25	4	
CCN1c2ncc(CCc3nccs3)cc2C(=O)N(C)c2cccnc21	0.04	0.44	> 1	
CCN1c2ncc(Cl)cc2C(=O)N(C)c2cccnc21	0.54	> 1		
CCN1c2ncc(CCc3cccc(C)c3)cc2C(=O)N(C)c2ccc(Cl)nc21	0.11	0.46	> 1	

SMILES	IC50 [1] [µM]	IC50 [2] [µM]	IC50 [3] [µM]	further results
CCN1c2ncc(CCc3cccc(N)c3)cc2C(=O)N(C)c2ccc(Cl)nc21	0.12	0.23	0.25	IC50 [4]: 0.09 µM; IC50 [5]: 0.04 µM; IC50 [6]: 0.01 µM; IC50 [7]: 0.01 µM
CCN1c2ncc(/C=C/C(=O)OC)cc2C(=O)N(C)c2cccnc21	> 1			
CCN1c2ncc(CCc3ccc4ccccc4c3)cc2C(=O)N(C)c2cccnc21	0.08	0.15	> 1	
CCN1c2ncc(CCc3ccccc3)cc2C(=O)N(C)c2cccnc21	0.05	0.13		
CCN1c2ncc(CCC(=O)OC)cc2C(=O)N(C)c2cccnc21	0.09	0.14		
CCN1c2ncc(CCCO)cc2C(=O)N(C)c2cccnc21	0.3	2.9		
CCN1c2ncc(CCCc3ccccc3)cc2C(=O)N(C)c2cccnc21	0.12	1.17		
CCN1c2ncc(NC(N)=O)cc2C(=O)N(C)c2cccnc21	1.1			
CCN1c2ncc(CCO)cc2C(=O)N(C)c2cccnc21	0.43	2.5		
CCN1c2ncc(CCc3cccc(N=[N+]=[N-])c3)cc2C(=O)N(C)c2ccc(Cl)nc21	0.08	0.16	> 1	
CCN1c2ncc(CCc3ccc(N)cc3)cc2C(=O)N(C)c2ccc(Cl)nc21	0.16	0.36	> 1	
CCN1c2ncc(CCc3ccc(N)cc3)cc2C(=O)N(C)c2cccnc21	0.06	0.2	> 1	
CCN1c2ncc(CCc3ccccc3C)cc2C(=O)N(C)c2ccc(Cl)nc21	> 1	> 1	> 1	
CCN1c2ncc(CCc3ccccn3)cc2C(=O)N(C)c2cccnc21	0.19	> 1	> 1	
CCN1c2ncc(CCc3ccccc3)cc2C(=O)N(C)c2ccc(C3=CCC=N3)nc21	0.59	0.52	1.28	
CCN1c2ncc(/C=C\c3ccccc3)cc2C(=O)N(C)c2cccnc21	0.25	0.58		
CCN1c2ncc(CCc3ccnc(C(=O)OC)c3)cc2C(=O)N(C)c2ccc(Cl)nc21	0.15	0.48	6	
CCN1c2ncc(CCc3cccnc3)cc2C(=O)N(C)c2cccnc21	0.13	0.32	> 1	
CCN1c2ncc(CCc3cccc(NS(C)(=O)=O)c3)cc2C(=O)N(C)c2ccc(Cl)nc21	0.14	0.14	> 1	
CCN1c2ncc(CCC(N)=O)cc2C(=O)N(C)c2cccnc21	0.62	6.1		
CCN1c2ncc(CO)cc2C(=O)N(C)c2cccnc21	0.05	0.74		
CCN1c2ncc(CCc3ccc4ccccc4c3)cc2C(=O)N(C)c2ccc(F)nc21	0.02	0.03	> 1	
CCN1c2ncc(C(=O)O)cc2C(=O)N(C)c2cccnc21	> 1			
CCN1c2ncc(CCc3ccncc3)cc2C(=O)N(C)c2ccc(Cl)nc21				IC50 (C8166): 0.009 µM
CCN1c2ncccc2C(=O)N(C)c2cccnc21	0.09			
CCN1c2ncc(CCC#N)cc2C(=O)N(C)c2cccnc21	0.21	2.16		
CCN1c2ncc(C)cc2C(=O)N(C)c2cccnc21	0.75	> 1		

— ChEMBL document CHEMBL1131047, “Novel nonnucleoside inhibitors of HIV-1 reverse transcriptase. 7. 8-Arylethyldipyridodiazepinones as potent broad-spectrum inhibitors of wild-type and mutant enzymes” (J Med Chem, 1998)
